Results from patent publication US9050341B2, “Methods of treating drug resistant and other tumors by administering 6,7-dialkoxy quinazoline derivatives” (NATCO PHARMA LIMITED, priority 2009, dated 2015).

Tests used:
Test in all cases: KinomeScan kinase profiling
Type in all cases: binding
ABL1 (Q252H) = biological target: T1, ABL1 (Q252H) (Homo sapiens, UniProt P00519, Q252H)
T1 construct: host or cells: E. coli host derived from BL21 (T7 phage lysate)
Outline: (§1)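 Kinases were expressed as T7 phage fusions in a BL21-derived E. coli host and the cleared lysates were used. Ligand beads were blocked with biotin and buffer (1% BSA, 0.05% Tween 20, 1 mM DTT). Compounds came from 40× DMSO stocks, and phage in the eluates was titred by qPCR.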

ASK1 = biological target: T2, ASK1 (Homo sapiens, UniProt Q99683)
T2 construct: purchased Ambit Biosciences Corp (KinomeScan); host or cells: E. coli host derived from the BL21 strain, T7 phage
Outline: as §1

CAMK1 = biological target: T3, CAMK1 (Homo sapiens, UniProt Q14012)
T3 construct: purchased Ambit Biosciences Corp (KinomeScan); host or cells: E. coli host derived from the BL21 strain, T7 phage
Outline: as §1

CAMK1D = biological target: T4, CAMK1D (Homo sapiens, UniProt Q8IU85)
T4 construct: purchased Ambit Biosciences Corp (KinomeScan); host or cells: E. coli host derived from the BL21 strain, T7 phage
Outline: as §1

CAMK4 = biological target: T5, CAMK4 (Homo sapiens, UniProt Q16566)
T5 construct: host or cells: T7 phage in E. coli (BL21-derived)
Outline: as §1

CDC2L2 = biological target: T6, CDC2L2 (Homo sapiens, UniProt Q9UQ88)
T6 construct: host or cells: T7 phage in E. coli (BL21-derived)
Outline: as §1

CDK11 = biological target: T7, CDK11 (Homo sapiens, UniProt Q9BWU1)
T7 construct: host or cells: T7 phage in E. coli (BL21-derived)
Outline: as §1

DLK = biological target: T8, DLK (Homo sapiens, UniProt Q12852)
T8 construct: purchased Ambit Biosciences Corp (KinomeScan); host or cells: T7 phage in E. coli host derived from BL21
T8 sequence (Q12852 whole entry): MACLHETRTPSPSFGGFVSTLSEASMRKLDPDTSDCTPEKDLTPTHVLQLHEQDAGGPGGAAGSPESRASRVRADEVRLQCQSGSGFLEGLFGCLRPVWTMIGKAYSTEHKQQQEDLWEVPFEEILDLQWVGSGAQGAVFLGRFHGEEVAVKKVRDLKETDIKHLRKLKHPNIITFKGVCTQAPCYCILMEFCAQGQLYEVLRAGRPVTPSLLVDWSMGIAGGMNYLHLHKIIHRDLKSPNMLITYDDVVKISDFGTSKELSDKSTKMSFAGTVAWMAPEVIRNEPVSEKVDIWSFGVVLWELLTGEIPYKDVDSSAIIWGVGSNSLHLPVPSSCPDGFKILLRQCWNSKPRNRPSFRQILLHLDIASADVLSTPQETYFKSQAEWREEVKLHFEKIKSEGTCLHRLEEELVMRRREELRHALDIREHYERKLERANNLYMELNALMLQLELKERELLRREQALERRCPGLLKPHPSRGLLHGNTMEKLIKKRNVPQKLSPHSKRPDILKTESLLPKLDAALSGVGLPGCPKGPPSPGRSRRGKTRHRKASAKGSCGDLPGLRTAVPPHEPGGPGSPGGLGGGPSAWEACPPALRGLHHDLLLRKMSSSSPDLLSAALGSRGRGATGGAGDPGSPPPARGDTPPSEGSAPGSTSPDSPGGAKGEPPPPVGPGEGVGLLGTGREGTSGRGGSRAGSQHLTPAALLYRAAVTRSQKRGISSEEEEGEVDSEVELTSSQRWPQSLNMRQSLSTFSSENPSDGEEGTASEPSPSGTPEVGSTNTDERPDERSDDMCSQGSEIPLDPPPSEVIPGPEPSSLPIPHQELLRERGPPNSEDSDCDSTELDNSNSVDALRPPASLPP
Outline: as §1

EPHB4 = biological target: T9, EPHB4 (Homo sapiens, UniProt P54760)
T9 construct: host or cells: E. coli host derived from BL21, T7 phage lysate
Outline: as §1

ERK5 = biological target: T10, ERK5 (Homo sapiens, UniProt Q13164)
T10 construct: host or cells: E. coli host derived from BL21, T7 phage lysate
Outline: as §1

FLT3 (K663Q) = biological target: T11, FLT3 (K663Q) (Homo sapiens, UniProt P36888, K663Q)
T11 construct: host or cells: E. coli host derived from BL21, infected with T7 phage
Outline: as §1

IKK-epsilon = biological target: T12, IKK-epsilon (Homo sapiens, UniProt Q14164)
T12 construct: host or cells: T7 phage in E. coli host derived from BL21
Outline: as §1

MEK3 = biological target: T13, MEK3 (Homo sapiens, UniProt P46734)
T13 construct: host or cells: E. coli derived from BL21, infected with T7 phage
Outline: as §1

PAK2 = biological target: T14, PAK2 (Homo sapiens, UniProt Q13177)
T14 construct: host or cells: E. coli host derived from the BL21 strain, infected with T7 phage
T14 sequence (Q13177 whole entry): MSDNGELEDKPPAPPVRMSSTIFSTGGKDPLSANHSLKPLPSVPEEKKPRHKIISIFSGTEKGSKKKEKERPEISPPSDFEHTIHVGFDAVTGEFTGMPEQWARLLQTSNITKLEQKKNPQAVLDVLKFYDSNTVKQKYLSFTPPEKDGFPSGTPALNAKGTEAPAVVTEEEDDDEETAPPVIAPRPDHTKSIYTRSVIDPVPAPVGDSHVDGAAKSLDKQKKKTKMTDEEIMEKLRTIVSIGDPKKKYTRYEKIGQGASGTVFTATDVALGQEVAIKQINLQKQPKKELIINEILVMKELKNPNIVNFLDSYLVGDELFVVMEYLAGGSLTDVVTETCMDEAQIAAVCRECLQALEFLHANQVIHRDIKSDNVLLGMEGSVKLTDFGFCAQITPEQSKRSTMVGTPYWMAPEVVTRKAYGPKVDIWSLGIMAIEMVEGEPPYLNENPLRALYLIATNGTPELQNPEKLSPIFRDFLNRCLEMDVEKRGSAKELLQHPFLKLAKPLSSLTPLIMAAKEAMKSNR
Outline: as §1

PAK4 = biological target: T15, PAK4 (Homo sapiens, UniProt O96013)
T15 construct: host or cells: E. coli host derived from the BL21 strain, infected with T7 phage
T15 sequence (O96013 whole entry): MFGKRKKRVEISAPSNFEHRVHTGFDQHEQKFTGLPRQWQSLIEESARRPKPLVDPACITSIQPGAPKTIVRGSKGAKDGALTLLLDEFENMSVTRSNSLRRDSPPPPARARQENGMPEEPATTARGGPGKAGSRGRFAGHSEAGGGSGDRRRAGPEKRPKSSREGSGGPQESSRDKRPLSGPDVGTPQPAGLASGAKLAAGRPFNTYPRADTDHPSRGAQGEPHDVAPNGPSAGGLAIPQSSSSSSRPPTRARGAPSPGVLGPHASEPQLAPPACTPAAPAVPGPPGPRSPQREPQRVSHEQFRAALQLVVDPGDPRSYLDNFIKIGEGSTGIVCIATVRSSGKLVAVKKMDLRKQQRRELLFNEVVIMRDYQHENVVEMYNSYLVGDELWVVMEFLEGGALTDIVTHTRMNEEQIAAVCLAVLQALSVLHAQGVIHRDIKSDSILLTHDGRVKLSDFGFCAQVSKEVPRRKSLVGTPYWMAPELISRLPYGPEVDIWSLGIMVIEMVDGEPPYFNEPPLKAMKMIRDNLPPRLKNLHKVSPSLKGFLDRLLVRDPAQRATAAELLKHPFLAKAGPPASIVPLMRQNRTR
Outline: as §1

PIM2 = biological target: T16, PIM2 (Homo sapiens, UniProt Q9P1W9)
T16 construct: purchased Ambit Biosciences Corp (KinomeScan); host or cells: E. coli host derived from BL21, infected with T7 phage
Outline: as §1

PLK3 = biological target: T17, PLK3 (Homo sapiens, UniProt Q9H4B4)
T17 construct: purchased Ambit Biosciences Corp (KinomeScan); host or cells: E. coli host derived from BL21, infected with T7 phage
Outline: as §1

PLK4 = biological target: T18, PLK4 (Homo sapiens, UniProt O00444)
T18 construct: purchased Ambit Biosciences Corp (KinomeScan); host or cells: E. coli host derived from BL21, infected with T7 phage
Outline: as §1

PRKCE = biological target: T19, PRKCE (Homo sapiens, UniProt Q02156)
T19 construct: purchased Ambit Biosciences Corp (KinomeScan); host or cells: E. coli host derived from BL21, infected with T7 phage
T19 sequence (Q02156 whole entry): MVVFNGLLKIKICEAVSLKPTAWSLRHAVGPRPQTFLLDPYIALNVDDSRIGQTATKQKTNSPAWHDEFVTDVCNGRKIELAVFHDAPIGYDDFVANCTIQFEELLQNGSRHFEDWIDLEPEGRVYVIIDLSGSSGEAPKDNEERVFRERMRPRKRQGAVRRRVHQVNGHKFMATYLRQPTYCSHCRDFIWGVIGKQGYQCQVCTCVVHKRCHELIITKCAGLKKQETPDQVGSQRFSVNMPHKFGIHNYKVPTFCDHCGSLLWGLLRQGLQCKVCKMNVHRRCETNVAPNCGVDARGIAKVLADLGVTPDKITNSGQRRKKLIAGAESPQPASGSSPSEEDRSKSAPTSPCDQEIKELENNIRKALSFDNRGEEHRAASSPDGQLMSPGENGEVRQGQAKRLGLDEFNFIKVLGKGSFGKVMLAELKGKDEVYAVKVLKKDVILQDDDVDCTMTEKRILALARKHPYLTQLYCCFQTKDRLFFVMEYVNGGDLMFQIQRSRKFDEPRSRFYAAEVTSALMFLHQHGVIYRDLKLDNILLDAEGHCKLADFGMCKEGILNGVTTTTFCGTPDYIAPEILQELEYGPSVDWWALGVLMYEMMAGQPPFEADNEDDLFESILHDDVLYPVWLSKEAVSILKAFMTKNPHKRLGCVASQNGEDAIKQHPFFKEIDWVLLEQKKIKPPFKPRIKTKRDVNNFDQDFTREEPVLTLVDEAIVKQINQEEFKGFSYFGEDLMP
Outline: as §1

RET (V804M) = biological target: T20, RET (V804M) (Homo sapiens, UniProt P07949, V804M)
T20 construct: host or cells: E. coli host derived from BL21, T7 phage lysate
Outline: as §1

SLK = biological target: T21, SLK (Homo sapiens, UniProt Q9H2G2)
T21 construct: host or cells: E. coli host derived from the BL21 strain, T7 phage lysate
Outline: as §1

TNK2 = biological target: T22, TNK2 (Homo sapiens, UniProt Q07912)
T22 construct: purchased Ambit Biosciences Corp (KinomeScan); host or cells: E. coli host derived from the BL21 strain (T7 phage lysate)
T22 sequence (Q07912 whole entry): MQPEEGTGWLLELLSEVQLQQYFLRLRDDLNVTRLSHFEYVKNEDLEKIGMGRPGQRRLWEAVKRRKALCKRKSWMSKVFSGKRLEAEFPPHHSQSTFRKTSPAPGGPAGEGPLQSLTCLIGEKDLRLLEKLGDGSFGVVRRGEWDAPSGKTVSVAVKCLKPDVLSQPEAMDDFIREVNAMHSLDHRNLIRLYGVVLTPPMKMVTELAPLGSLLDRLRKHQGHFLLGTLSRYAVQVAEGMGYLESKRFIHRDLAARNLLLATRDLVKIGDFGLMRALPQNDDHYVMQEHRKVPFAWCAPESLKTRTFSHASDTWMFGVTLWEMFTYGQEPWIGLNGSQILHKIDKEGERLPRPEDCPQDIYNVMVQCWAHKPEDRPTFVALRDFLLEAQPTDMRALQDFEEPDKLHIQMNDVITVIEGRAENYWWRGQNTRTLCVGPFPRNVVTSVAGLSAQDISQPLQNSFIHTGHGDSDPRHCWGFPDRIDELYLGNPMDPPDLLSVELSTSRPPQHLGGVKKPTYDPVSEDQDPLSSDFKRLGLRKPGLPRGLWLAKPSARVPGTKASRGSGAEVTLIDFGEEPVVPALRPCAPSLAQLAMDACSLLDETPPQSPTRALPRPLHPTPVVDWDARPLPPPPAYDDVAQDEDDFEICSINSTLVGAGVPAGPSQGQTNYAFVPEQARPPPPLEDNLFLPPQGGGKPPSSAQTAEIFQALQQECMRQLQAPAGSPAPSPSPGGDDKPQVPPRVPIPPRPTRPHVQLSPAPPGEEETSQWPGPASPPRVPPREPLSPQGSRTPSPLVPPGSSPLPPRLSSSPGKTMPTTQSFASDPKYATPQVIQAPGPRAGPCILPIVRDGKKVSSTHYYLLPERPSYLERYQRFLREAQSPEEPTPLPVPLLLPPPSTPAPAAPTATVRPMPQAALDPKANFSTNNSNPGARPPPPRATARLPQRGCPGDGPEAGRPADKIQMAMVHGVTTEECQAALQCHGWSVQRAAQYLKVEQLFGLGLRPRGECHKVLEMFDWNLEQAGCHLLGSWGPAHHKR
Outline: as §1

ULK1 = biological target: T23, ULK1 (Homo sapiens, UniProt O75385)
T23 construct: purchased Ambit Biosciences Corp (KinomeScan); host or cells: E. coli host derived from the BL21 strain (T7 phage lysate)
T23 sequence (O75385 whole entry): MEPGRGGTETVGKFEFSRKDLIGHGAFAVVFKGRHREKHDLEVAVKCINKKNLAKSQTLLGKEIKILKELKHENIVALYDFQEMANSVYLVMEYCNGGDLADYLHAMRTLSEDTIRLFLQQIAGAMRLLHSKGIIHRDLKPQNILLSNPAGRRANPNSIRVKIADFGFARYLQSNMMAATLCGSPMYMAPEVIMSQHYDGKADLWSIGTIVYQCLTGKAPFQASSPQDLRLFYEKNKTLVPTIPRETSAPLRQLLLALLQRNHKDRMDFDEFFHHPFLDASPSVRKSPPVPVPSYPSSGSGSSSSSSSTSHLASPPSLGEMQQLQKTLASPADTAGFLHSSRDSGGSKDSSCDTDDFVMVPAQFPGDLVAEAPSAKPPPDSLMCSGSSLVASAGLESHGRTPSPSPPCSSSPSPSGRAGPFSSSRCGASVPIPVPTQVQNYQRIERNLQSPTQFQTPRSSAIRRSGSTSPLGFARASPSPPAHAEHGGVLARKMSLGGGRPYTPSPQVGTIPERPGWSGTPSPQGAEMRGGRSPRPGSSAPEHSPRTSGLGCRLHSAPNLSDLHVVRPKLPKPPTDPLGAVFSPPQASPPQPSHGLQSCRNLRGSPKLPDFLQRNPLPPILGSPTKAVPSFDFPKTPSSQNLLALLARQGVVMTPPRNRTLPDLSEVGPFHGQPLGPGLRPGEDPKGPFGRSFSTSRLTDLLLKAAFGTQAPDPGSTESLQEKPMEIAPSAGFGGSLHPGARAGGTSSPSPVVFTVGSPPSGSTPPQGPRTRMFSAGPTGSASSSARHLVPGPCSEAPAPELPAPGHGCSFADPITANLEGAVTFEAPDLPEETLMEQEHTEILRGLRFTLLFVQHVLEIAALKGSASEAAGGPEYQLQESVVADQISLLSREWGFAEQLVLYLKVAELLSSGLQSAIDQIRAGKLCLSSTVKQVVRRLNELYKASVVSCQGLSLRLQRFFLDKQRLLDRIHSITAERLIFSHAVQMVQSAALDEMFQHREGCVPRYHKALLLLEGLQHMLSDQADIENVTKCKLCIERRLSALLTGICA
Outline: as §1

## C#Cc1cccc(Nc2ncnc3cc(OC)c(OCCCN4CCOCC4)cc23)c1 [NRC-2694, N-(3-ethylnylphenyl)-7-methoxy-6-[3-(4-morpholinyl)propoxy]-4-quinazolinamine]
ABL1 (Q252H)
  % Ctrl @ 10000 nM: 15 % Ctrl
ASK1
  % Ctrl @ 10000 nM: 100 % Ctrl
CAMK1
  % Ctrl @ 10000 nM: 65 % Ctrl
CAMK1D
  % Ctrl @ 10000 nM: 83 % Ctrl
CAMK4
  % Ctrl @ 10000 nM: 92 % Ctrl
CDC2L2
  % Ctrl @ 10000 nM: 37 % Ctrl
CDK11
  % Ctrl @ 10000 nM: 87 % Ctrl
DLK
  % Ctrl @ 10000 nM: 92 % Ctrl
EPHB4
  % Ctrl @ 10000 nM: 39 % Ctrl
ERK5
  % Ctrl @ 10000 nM: 90 % Ctrl
FLT3 (K663Q)
  % Ctrl @ 10000 nM: 56 % Ctrl
IKK-epsilon
  % Ctrl @ 10000 nM: 75 % Ctrl
MEK3
  % Ctrl @ 10000 nM: 100 % Ctrl
PAK2
  % Ctrl @ 10000 nM: 67 % Ctrl
PAK4
  % Ctrl @ 10000 nM: 80 % Ctrl
PIM2
  % Ctrl @ 10000 nM: 83 % Ctrl
PLK3
  % Ctrl @ 10000 nM: 97 % Ctrl
PLK4
  % Ctrl @ 10000 nM: 70 % Ctrl
PRKCE
  % Ctrl @ 10000 nM: 65 % Ctrl
RET (V804M)
  % Ctrl @ 10000 nM: 100 % Ctrl
SLK
  % Ctrl @ 10000 nM: 0.3 % Ctrl
TNK2
  % Ctrl @ 10000 nM: 37 % Ctrl
ULK1
  % Ctrl @ 10000 nM: 100 % Ctrl
